pEC50, pIC50: −log10 of the molar value. In brackets after ≈: the same amount, converted by molar mass.
Experiments:
[1] = Inhibition of Hepatitis C virus genotype 1a NS5B polymerase; parameters: species or system Hepatitis C virus subtype 1a
Hepatitis C virus [2] = assay: Inhibition of Hepatitis C virus genotype 1b NS5B polymerase; parameters: species or system Hepatitis C virus subtype 1b
Hepatitis C virus [3] = assay: Antiviral activity against Hepatitis C virus genotype 1b infected in human HuH7 cells; type: functional, organism-based, Hepacivirus hominis; conditions: Huh-7
Hepatitis C virus [4] = assay: Antiviral activity against Hepatitis C virus genotype 1a infected in human HuH7 cells; type: functional, organism-based, Hepacivirus hominis; conditions: subtype 1a, Huh-7
[5] = Oral bioavailability in rat; type: ADME, organism-based; conditions: in vivo
[6] = AUC in po dosed rat; type: ADME, organism-based; conditions: plasma
[7] = Permeability of the compound; type: ADME; conditions: not told; read-out: permeability
[8] = Half life in iv dosed rat; type: ADME, organism-based; conditions: in vivo
[9] = AUC in rat; type: ADME, organism-based; conditions: plasma
[10] = Solubility of the compound; type: physicochemical
[11] = Cytotoxicity against human HuH7 cells; type: cell-based; conditions: Huh-7 cells, read-out: TD50 (the source's name)

pIC50 [1]	pIC50 (Hepatitis C virus [2])	pEC50 (Hepatitis C virus [3])	pEC50 (Hepatitis C virus [4])	bioavailability [5]	AUC [6]	Papp [7]	half-life [8]	AUC [9]	solubility [10]	SMILES	CC50 [11]
4.15	4.64	< 4.00	< 4.00							CC(C)(C)c1cc(N2CCC(=O)NC2=O)ccc1O	
4.59		< 4.00	< 4.00	45%	5570 ng·h/mL	5.5 ×10⁻⁶ cm/s	228 min	12400 ng·h/mL	73 µM (≈ 20.2 µg/mL)	COc1ccc(N2CCC(=O)NC2=O)cc1C(C)(C)C	
8.00	7.70	7.70	7.22	1.5%	50 ng·h/mL	0.5 ×10⁻⁶ cm/s	66 min	3380 ng·h/mL	2 µM (≈ 0.977 µg/mL)	COc1c(C(=O)Nc2ccc(NS(C)(=O)=O)cc2)cc(N2CCC(=O)NC2=O)cc1C(C)(C)C	
5.37	6.64	5.20	4.73							CC(C)(C)c1cc(N2CCC(=O)NC2=O)cc(C(=O)Nc2ccccc2)c1O	
6.05	6.12	5.99	5.44	15%	330 ng·h/mL	1.4 ×10⁻⁶ cm/s	30 min	2190 ng·h/mL	12 µM (≈ 4.75 µg/mL)	COc1c(C(=O)Nc2ccccc2)cc(N2CCC(=O)NC2=O)cc1C(C)(C)C	
5.07	6.03	4.82	4.85							CC(C)(C)c1cc(N2CCC(=O)NC2=O)cc(C(=O)NCc2ccccc2)c1O	
5.69	5.91	5.37	< 4.30							COc1c(C(=O)Nc2ccc(N)cc2)cc(N2CCC(=O)NC2=O)cc1C(C)(C)C	
5.47	5.29									COc1c(C(=O)Nc2ccc(NC(C)=O)cc2)cc(N2CCC(=O)NC2=O)cc1C(C)(C)C	
7.70	8.70	7.30	6.41							CC(C)(C)c1cc(N2CCC(=O)NC2=O)cc(C(=O)Nc2ccc(NS(C)(=O)=O)cc2)c1O	
6.74	7.52	5.95	5.33							CC(C)(C)c1cc(N2CCC(=O)NC2=O)cc(C(=O)Nc2ccc(OS(C)(=O)=O)cc2)c1O	> 50000 nM
6.17	5.98	6.07	5.47							COc1c(C(=O)Nc2ccc(OS(C)(=O)=O)cc2)cc(N2CCC(=O)NC2=O)cc1C(C)(C)C	> 50000 nM
6.34	7.52	5.98	5.45							CN(c1ccc(NC(=O)c2cc(N3CCC(=O)NC3=O)cc(C(C)(C)C)c2O)cc1)S(C)(=O)=O	> 50000 nM
6.11	6.08	6.25	5.26							COc1c(C(=O)Nc2ccc(N(C)S(C)(=O)=O)cc2)cc(N2CCC(=O)NC2=O)cc1C(C)(C)C	> 50000 nM
6.44	7.30	5.12	4.56							CC(C)(C)c1cc(N2CCC(=O)NC2=O)cc(C(=O)Nc2cccc(NS(C)(=O)=O)c2)c1O	> 50000 nM
7.42	8.00	7.03	6.23							CC(C)(C)c1cc(-n2ccc(=O)[nH]c2=O)cc(C(=O)Nc2ccc(NS(C)(=O)=O)cc2)c1O	
7.70	7.52	7.30	6.57			0.2 ×10⁻⁶ cm/s			13 µM (≈ 6.33 µg/mL)	COc1c(C(=O)Nc2ccc(NS(C)(=O)=O)cc2)cc(-n2ccc(=O)[nH]c2=O)cc1C(C)(C)C	
7.30	8.15	6.38	5.71							CC(C)(C)c1cc(N2CCC(=O)NC2=O)cc(C(=O)Nc2ccc(NS(=O)(=O)CCN3CCOCC3)cc2)c1O	
6.96	6.51	6.24	5.27	0%		0.1 ×10⁻⁶ cm/s	36 min	2540 ng·h/mL	74 µM (≈ 43.5 µg/mL)	COc1c(C(=O)Nc2ccc(NS(=O)(=O)CCN3CCOCC3)cc2)cc(N2CCC(=O)NC2=O)cc1C(C)(C)C	

Reference: ChEMBL document CHEMBL2401647, “High potency improvements to weak aryl uracil HCV polymerase inhibitor leads” (Bioorg Med Chem Lett, 2013)
